This passage reports IC50 and inhibition results from US9012443B2 (Amgen Inc., priority 2011, dated 2015).

For orientation: IC50 means the concentration needed to halve the response being measured. By inhibition is commonly meant the percentage by which the read-out fell short of the control.

SMILES strings stand for the structures.

Sequence of Nav 1.7 (Q15858 whole entry): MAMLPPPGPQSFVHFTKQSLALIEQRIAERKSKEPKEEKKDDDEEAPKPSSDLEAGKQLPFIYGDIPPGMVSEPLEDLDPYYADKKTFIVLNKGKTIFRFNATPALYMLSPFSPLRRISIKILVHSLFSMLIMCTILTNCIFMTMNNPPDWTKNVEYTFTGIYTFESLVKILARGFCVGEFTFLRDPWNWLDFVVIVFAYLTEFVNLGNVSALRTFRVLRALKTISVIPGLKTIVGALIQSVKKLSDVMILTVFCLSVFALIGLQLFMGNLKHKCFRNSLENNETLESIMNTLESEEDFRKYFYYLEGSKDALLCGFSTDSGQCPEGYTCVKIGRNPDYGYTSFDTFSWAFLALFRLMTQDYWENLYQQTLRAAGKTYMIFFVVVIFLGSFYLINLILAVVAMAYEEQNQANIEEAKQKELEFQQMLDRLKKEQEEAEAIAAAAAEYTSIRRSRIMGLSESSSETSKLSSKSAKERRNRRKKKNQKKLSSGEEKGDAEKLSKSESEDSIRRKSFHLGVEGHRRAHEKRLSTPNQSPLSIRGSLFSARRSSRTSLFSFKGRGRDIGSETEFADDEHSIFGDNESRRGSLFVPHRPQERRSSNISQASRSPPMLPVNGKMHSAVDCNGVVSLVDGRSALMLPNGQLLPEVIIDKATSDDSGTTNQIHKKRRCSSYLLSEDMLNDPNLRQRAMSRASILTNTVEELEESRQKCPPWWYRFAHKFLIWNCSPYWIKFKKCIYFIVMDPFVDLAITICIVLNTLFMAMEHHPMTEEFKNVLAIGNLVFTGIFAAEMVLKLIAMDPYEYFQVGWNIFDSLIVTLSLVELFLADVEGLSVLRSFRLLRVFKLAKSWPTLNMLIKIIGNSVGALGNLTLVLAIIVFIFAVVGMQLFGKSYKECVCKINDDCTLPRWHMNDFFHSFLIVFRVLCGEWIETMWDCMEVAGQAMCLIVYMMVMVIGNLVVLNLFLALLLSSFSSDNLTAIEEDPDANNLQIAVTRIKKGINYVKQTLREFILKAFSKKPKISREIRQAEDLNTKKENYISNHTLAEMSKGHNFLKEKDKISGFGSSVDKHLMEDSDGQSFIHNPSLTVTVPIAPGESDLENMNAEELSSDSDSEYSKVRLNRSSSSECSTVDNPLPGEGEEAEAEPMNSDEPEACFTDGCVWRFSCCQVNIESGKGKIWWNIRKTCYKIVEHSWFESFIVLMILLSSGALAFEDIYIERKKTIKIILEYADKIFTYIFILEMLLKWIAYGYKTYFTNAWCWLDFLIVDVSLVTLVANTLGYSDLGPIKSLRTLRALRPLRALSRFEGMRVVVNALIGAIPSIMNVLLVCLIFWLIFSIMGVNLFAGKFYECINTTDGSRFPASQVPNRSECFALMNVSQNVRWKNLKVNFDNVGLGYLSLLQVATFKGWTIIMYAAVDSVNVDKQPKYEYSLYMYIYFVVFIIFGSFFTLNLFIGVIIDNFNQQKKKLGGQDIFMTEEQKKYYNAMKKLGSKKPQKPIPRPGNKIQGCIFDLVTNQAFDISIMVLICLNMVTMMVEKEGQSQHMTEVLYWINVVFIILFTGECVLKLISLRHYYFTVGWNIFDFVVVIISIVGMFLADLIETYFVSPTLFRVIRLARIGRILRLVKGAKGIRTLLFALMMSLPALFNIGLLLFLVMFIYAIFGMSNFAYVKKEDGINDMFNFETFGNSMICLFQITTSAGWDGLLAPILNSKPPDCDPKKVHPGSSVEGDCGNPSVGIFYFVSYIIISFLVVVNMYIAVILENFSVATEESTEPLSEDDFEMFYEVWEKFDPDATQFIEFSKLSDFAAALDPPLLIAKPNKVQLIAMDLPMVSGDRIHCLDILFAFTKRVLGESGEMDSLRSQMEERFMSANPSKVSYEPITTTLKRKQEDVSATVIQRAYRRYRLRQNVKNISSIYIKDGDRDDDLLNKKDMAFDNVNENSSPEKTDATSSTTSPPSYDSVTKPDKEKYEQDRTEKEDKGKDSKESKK

One assay has as its target Nav 1.7 (Homo sapiens (Human), UniProt Q15858). As to the kind of experiment: Nav 1.7 IWQ in vitro assay (IonWorks Quattro population patch-clamp). The settings on record: 293 cells stably transfected with Nav 1.7; first part of table; read-out: Nav 1.7 IWQ IC50. In kind it is cell-based. How it is done: Nav 1.7 or Nav 1.5 IWQ In Vitro Assay
293 Cells stably transfected with either Nav 1.7 or Nav 1.5 were recorded in population patch-clamp mode with the IonWorks® Quattro automated electrophysiology system in accordance with the manufacturer's specifications (Molecular Devices, LLC, Sunnyvale, Calif.). Sodium channel currents were measured in response to a train of depolarizations that induced successively greater inactivation.
Cells were then left unclamped for a period of 3 to 8 minutes while a single concentration of test compound was added. Cells were then reclamped and put through the same voltage protocol. Current at the end of the 26th pulse to −20 mV was subtracted from the peak current evoked by the 26th pulse to −20 mV to correct for leak current. Percent block was calculated for each concentration in duplicate, and IC50 curves were fitted to percent block as a function of concentration.
For orientation: The patch-clamp technique gives a direct electrical read-out from membranes.
For the compound `O=S(=O)(Nc1ccncn1)c1ccc2c(-c3ccc(C(F)(F)F)cc3C3=CCNCC3)cccc2c1` [Example 48], the IC50 was determined as 30 nM.

On to `O=S(=O)(Nc1ncco1)c1ccc2c(-c3ccc(C(F)(F)F)cc3Cl)cccc2c1` [Example 49], for which the IC50 is 4870 nM.

Regarding `O=S(=O)(Nc1ncns1)c1ccc2c(-c3ccc(C(F)(F)F)cc3Cl)nccc2c1` [Example 56, 1-(2-CHLORO-4-(TRIFLUOROMETHYL)PHENYL)-N-(1,2,4-THIADIAZOL-5-YL)ISOQUINOLINE-6-SULFONAMIDE], the half-maximal inhibitory concentration (IC50) turned out to be 60 nM.

Take `O=S(=O)(Nc1ncns1)c1ccc2c(-c3ccc(C(F)(F)F)c(Cl)c3)nccc2c1` [Example 57, 1-(3-CHLORO-4-(TRIFLUOROMETHYL)PHENYL)-N-(1,2,4-THIADIAZOL-5-YL)ISOQUINOLINE-6-SULFONAMIDE]: the IC50 came out at 220 nM.

As to `O=S(=O)(Nc1ncns1)c1ccc2c(-c3ccc(C(F)(F)F)cc3O)nccc2c1` [Example 58, 1-(2-HYDROXY-4-(TRIFLUOROMETHYL)PHENYL)-N-(1,2,4-THIADIAZOL-5-YL)ISOQUINOLINE-6-SULFONAMIDE], the concentration for half-maximal inhibition (IC50) amounted to 600 nM.

Turning to `COc1ccc(-c2nccc3cc(S(=O)(=O)Nc4ncns4)ccc23)c(OC)c1` [Example 59, 1-(2,4-DIMETHOXYPHENYL)-N-(1,2,4-THIADIAZOL-5-YL)ISOQUINOLINE-6-SULFONAMIDE], the IC50 worked out at 60 nM.

As to `COc1cc(OC)c(-c2nccc3cc(S(=O)(=O)Nc4ncns4)ccc23)c(OC)c1` [Example 60, N-(1,2,4-THIADIAZOL-5-YL)-1-(2,4,6-TRIMETHOXYPHENYL)ISOQUINOLINE-6-SULFONAMIDE], the IC50 turned out to be 1560 nM.

As for `Cc1cc(Cl)ccc1-c1nccc2cc(S(=O)(=O)Nc3ncns3)ccc12` [Example 62], the IC50 is 90 nM.

Turning to `O=S(=O)(Nc1ncns1)c1ccc2c(-c3ccc(Cl)cc3C(F)(F)F)nccc2c1` [Example 63, 1-(4-CHLORO-2-(TRIFLUOROMETHYL)PHENYL)-N-(1,2,4-THIADIAZOL-5-YL)ISOQUINOLINE-6-SULFONAMIDE], the IC50 stood at 330 nM.

With `O=S(=O)(Nc1ncns1)c1ccc2c(-c3ccc(Cl)cc3)nccc2c1` [Example 64, 1-(4-CHLOROPHENYL)-N-(1,2,4-THIADIAZOL-5-YL)ISOQUINOLINE-6-SULFONAMIDE], the IC50 worked out at 770 nM.

In the case of `O=S(=O)(Nc1ccncn1)c1ccc2c(-c3ccc(C(F)(F)F)cc3-c3ccncc3)nccc2c1` [Example 65, 1-(2-(PYRIDIN-4-YL)-4-(TRIFLUOROMETHYL)PHENYL)-N-(PYRIMIDIN-4-YL)ISOQUINOLINE-6-SULFONAMIDE], the IC50 turned out to be 320 nM.

In the case of `O=S(=O)(Nc1ccncn1)c1ccc2c(-c3ccc(C(F)(F)F)cc3Br)nccc2c1` [Example 66, 1-(2-BROMO-4-(TRIFLUOROMETHYL)PHENYL)-N-(PYRIMIDIN-4-YL)ISOQUINOLINE-6-SULFONAMIDE], the IC50 worked out at 120 nM.

Turning to `COc1cc(C(F)(F)F)ccc1-c1nccc2cc(S(=O)(=O)Nc3ccncn3)ccc12` [Example 67, 1-(2-METHOXY-4-(TRIFLUOROMETHYL)PHENYL)-N-(PYRIMIDIN-4-YL)ISOQUINOLINE-6-SULFONAMIDE], the IC50 was determined as 80 nM.

On to `CN1CC=C(c2cc(C(F)(F)F)ccc2-c2nccc3cc(S(=O)(=O)Nc4ccncn4)ccc23)CC1` [Example 68, 1-(2-(1-METHYL-1,2,3,6-TETRAHYDROPYRIDIN-4-YL)-4-(TRIFLUOROMETHYL)PHENYL)-N-(PYRIMIDIN-4-YL)ISOQUINOLINE-6-SULFONAMIDE], for which the IC50 was found to be 1520 nM.

`O=S(=O)(Nc1ccncn1)c1ccc2c(-c3ccc(C(F)(F)F)cc3C3=CCNCC3)nccc2c1` [Example 69, N-(PYRIMIDIN-4-YL)-1-(2-(1,2,3,6-TETRAHYDROPYRIDIN-4-YL)-4-(TRIFLUOROMETHYL)PHENYL)ISOQUINOLINE-6-SULFONAMIDE 2,2,2-TRIFLUOROACETATE]: the IC50 stood at 60 nM.

As for `O=S(=O)(Nc1nccs1)c1ccc2c(-c3ccc(C(F)(F)F)cc3C3=CCNCC3)nccc2c1` [Example 70, 1-(2-(1,2,3,6-TETRAHYDROPYRIDIN-4-YL)-4-(TRIFLUOROMETHYL)PHENYL)-N-(THIAZOL-2-YL)ISOQUINOLINE-6-SULFONAMIDE], the IC50 stood at 15 nM.

Turning to `O=S(=O)(Nc1nccs1)c1ccc2c(-c3ccc(C(F)(F)F)cc3-c3ccncc3)nccc2c1` [Example 71, 1-(2-(PYRIDIN-4-YL)-4-(TRIFLUOROMETHYL)PHENYL)-N-(THIAZOL-2-YL)ISOQUINOLINE-6-SULFONAMIDE], the IC50 amounted to 20 nM.

In the case of `CN1CC=C(c2cc(C(F)(F)F)ccc2-c2nccc3cc(S(=O)(=O)Nc4nccs4)ccc23)CC1` [Example 72, 1-(2-(1-METHYL-1,2,3,6-TETRAHYDROPYRIDIN-4-YL)-4-(TRIFLUOROMETHYL)PHENYL)-N-(THIAZOL-2-YL)ISOQUINOLINE-6-SULFONAMIDE], the IC50 amounted to 60 nM.

On to `Cn1nccc1-c1cc(C(F)(F)F)ccc1-c1cccc2cc(S(=O)(=O)Nc3ccncn3)ccc12` [Example 74], for which the IC50 worked out at 80 nM.

Take `O=S(=O)(Nc1ccncn1)c1ccc2c(-c3ccc(C(F)(F)F)cc3-c3ccncc3)cccc2c1` [Example 75]: the IC50 stood at 100 nM.

For `CN1CC=C(c2cc(C(F)(F)F)ccc2-c2cccc3cc(S(=O)(=O)Nc4ccncn4)ccc23)CC1` [Example 76], the half-maximal inhibitory concentration (IC50) worked out at 70 nM.

Regarding `O=S(=O)(Nc1nccs1)c1ccc2c(-c3ccc(C(F)(F)F)cc3C3=CCNCC3)cccc2c1` [Example 77], the IC50 is 70 nM.

As to `CN1CC=C(c2cc(C(F)(F)F)ccc2-c2cccc3cc(S(=O)(=O)Nc4nccs4)ccc23)CC1` [Example 78], the half-inhibitory concentration (IC50) was 90 nM.

`O=S(=O)(Nc1nccs1)c1ccc2c(-c3ccc(C(F)(F)F)cc3Cl)cccc2c1` [Example 79]: the IC50 was 900 nM.

Turning to `O=S(=O)(Nc1nccs1)c1ccc2c(N3CCCC3c3ccccc3)cccc2c1` (stereo not drawn) [Example 80], the IC50 stood at 1200 nM.

`O=S(=O)(Nc1nccs1)c1ccc2c(-c3ccc(C(F)(F)F)cc3-c3ccnn3C3CNC3)cccc2c1` [Example 81]: the concentration for half-maximal inhibition (IC50) stood at 40 nM.

As for `CN1CC(n2nccc2-c2cc(C(F)(F)F)ccc2-c2cccc3cc(S(=O)(=O)Nc4nccs4)ccc23)C1` [Example 82], the IC50 was 70 nM.

As to `O=S(=O)(Nc1ncns1)c1ccc2c(N3CCCC3c3ccccc3)cccc2c1` (stereo not drawn) [Example 83], the IC50 stood at 10 nM.

The same assay, now with this note: 293 cells stably transfected with Nav 1.7; second part of table; read-out: Nav1.7 IWQ IC50 IP.
In the case of `O=C1CCCN1c1cccc2cc(S(=O)(=O)Nc3ncns3)ccc12` [Example 93], the IC50 worked out at 7970 nM.

Regarding `O=S(=O)(Nc1ccncn1)c1ccc2c(OCc3cccnc3)nccc2c1` [Example 128, 1-(PYRIDIN-3-YLMETHOXY)-N-(PYRIMIDIN-4-YL)ISOQUINOLINE-6-SULFONAMIDE], the IC50 came out at 3960 nM.

In the case of `N#CC1(COc2nccc3cc(S(=O)(=O)Nc4ccncn4)ccc23)CC1` [Example 135, 1-((1-CYANOCYCLOPROPYL)METHOXY)-N-(PYRIMIDIN-4-YL)ISOQUINOLINE-6-SULFONAMIDE], the half-maximal inhibitory concentration (IC50) stood at 3300 nM.

With `Cc1nn(-c2ccccc2)nc1COc1nccc2cc(S(=O)(=O)Nc3ccncn3)ccc12` [Example 138, 1-((5-METHYL-2-PHENYL-2H-1,2,3-TRIAZOL-4-YL)METHOXY)-N-(PYRIMIDIN-4-YL)ISOQUINOLINE-6-SULFONAMIDE], the IC50 was 3960 nM.

The same assay, now with this note: read-out: Nav 1.7 IWQ percent inhibition at […]; read-out: Nav 1.7 IWQ percent inhibition at 4.9 μM.
As to `COc1cnccc1NS(=O)(=O)c1ccc2c(-c3ccc(C(F)(F)F)cc3Cl)nccc2c1` [Example 52, 1-(2-CHLORO-4-(TRIFLUOROMETHYL)PHENYL)-N-(3-METHOXYPYRIDIN-4-YL)ISOQUINOLINE-6-SULFONAMIDE], the inhibition at […] turned out to be 16%.
